Test results from paper PMC8704891, “Natural Benzo/Acetophenones as Leads for New Synthetic Acetophenone Hybrids Containing a 1,2,3-Triazole Ring as Potential Antifouling Agents” (Marine Drugs, 2021).
Entries after “also recorded” stand apart in the source; their conditions may differ. Like-named read-outs stand apart in the source and are kept apart here. Blank lines part the entries; values can stand above or below the compound they belong to.

How the values were obtained:
Ulva pertusa = tested on: Ulva pertusa; set-up: method as in doi:10.3989/scimar.04638.13A; details: cited from earlier work
[1] = tested on: Roseobacter litoralis CECT 5395; test: Biofilm-forming marine bacteria growth inhibition; type: cell-based; details: for EC50: Roseobacter litoralis, CECT5395; for R. litoralis biofilm growth inhibition: screening at 15 μM, 24 h, vs negative control (Dunnett, p < 0.01)
Method: Five strains of marine biofilm-forming bacteria from the Spanish Type Culture Collection (CECT): Cobetia marina CECT 4278, Vibrio harveyi CECT 525, Halomonas aquamarina CECT 5000, Pseudoalteromonas atlantica CECT 570, and Roseobacter litoralis CECT 5395 were selected for antibacterial screening. The experimental procedure was performed according to the previously reported. Briefly, bacteria were inoculated and incubated for 24 h at 26 °C in marine broth (Difco) at an initial density of 0.1 (OD600) in 96-well flat-bottom microtiter plates and exposed to the test compounds at 15 μM. Bacterial growth inhibition in the presence of the compounds was determined in quadruplicate at 600 nm using a microplate reader (BioTek Synergy HT, Winooski, VT, USA). Negative and positive controls used were a solution of marine broth with 0.1% DMSO, and a solution of marine broth with penicillin–streptomycin–neomycin, respectively. Bacterial growth inhibition calculations were made based in the formula ((Mc–Mt)/Mc) × 100, where Mc is the mean of the four replicates from negative control, and Mt is the mean of four replicates from each of the tested compounds.
(§1) Data from anti-settlement, antibacterial, and anti-microalgal bioassay were analyzed by one-way analysis of variance (ANOVA), followed by a multi-comparisons Dunnett’s test against negative control. For all of the bioassays, the half-maximum response concentration (EC50) values for each compound, when applicable, were calculated using probit regression analysis. Significance was considered at p < 0.01, and 95% lower and upper confidence limits (95% LCL; UCL). The software IBM SPSS Statistics 26 (Armonk, New York, NY, USA) was used for statistical analysis.

[2] = tested on: Mytilus galloprovincialis plantigrade larvae; test: Mussel larvae anti-settlement bioassay; type: in vivo; details: for EC50: Mytilus galloprovincialis, dose-response 3.125-200 μM; for percentage of settlement: screening at 50 μM, 15 h
Method: (§2) Mussel (Mytilus galloprovincialis) plantigrades were collected in juvenile aggregates during low neap tides at Memória beach, Matosinhos, Portugal (41°13′59″ N; 8°43′28″ W). In the laboratory, mussel plantigrade larvae (0.5–2 mm) were isolated in a binocular magnifier (Olympus SZX2-ILLT, Tokyo, Japan) to a petri dish with filtered seawater, and those with functional foot and competent exploring behavior were selected to the bioassays. Compounds were screened at 50 µM in 24-well microplates with 4-well replicates per condition and 5 larvae per well, for 15 h, in the darkness at 18 ± 1 °C, according to the previously reported. All compounds that caused more than 60% of settlement inhibition (≤40% of settlement) in the screening bioassay were considered active and selected for the determination of the semi-maximum response concentration that inhibited 50% of the larval settlement (EC50), at compounds concentrations of 3.125, 6.25, 12.5, 25, 50, 100, and 200 μM.
as §1

[3] = Mussel larvae anti-settlement bioassay; type: in vivo; details: Mytilus galloprovincialis (mussel) plantigrade larvae, in vivo; mussel plantigrade larvae; highest concentration tested 200 μM; read-out: LC50 (µM), median lethal dose
Method: as §2, §1

Artemia salina nauplii [4] = test: Artemia salina nauplii lethality ecotoxicity bioassay; type: in vivo; details: 25 and 50 μM, 48 h exposure
Method: The brine shrimp (Artemia salina) nauplii lethality test was used to determine the ecotoxicity of 6a, 7a, and 9a to non-target organisms. Briefly, Artemia salina eggs were allowed to hatch in seawater for 48 h at 25 °C. Bioassays were performed in 96-well microplates with 15–20 nauplii per well and 200 μL of the compounds test solution. Test solutions were prepared in filtered seawater at concentrations of 25 and 50 μM. All tests included K2Cr2O7 as positive control and DMSO as a negative control. Bioassays run in the dark at 25 °C, and the percentage of mortality was determined after 48 h of exposure.

Navicula sp. = test: Biofilm-forming marine diatom growth inhibition; type: cell-based; details: for EC50: dose-response
Method: The anti-microalgal activity of the most promising compounds was also evaluated against a benthic marine diatom, Navicula sp., purchased from the Spanish Collection of Algae (BEA), according to the previously reported. Briefly, diatom cells were inoculated in f/2 medium (Sigma) at an initial concentration of 2–4 × 10^6 cells·mL^−1 and grown in 96-well flat-bottom microtiter plates for 14 days in continuous light at 20 °C. […] Growth inhibition was calculated based in the formula ((Mc–Mt)/Mc) × 100, where Mc is the mean of the cell counts of the four replicates from negative control, and Mt is the mean of the cell counts of the four replicates from each of the tested compounds. Positive control with cycloheximide (3.55 μM) and negative control with f/2 medium 0.1% DMSO were included.
as §1

Artemia salina nauplii [5] = tested on: Artemia salina nauplii; set-up: method as in PMID 31669574; details: 25 and 50 μM; cited from earlier work
[6] = dose-response, read-out: EC50 (µM), R. litoralis growth
[7] = dose-response, read-out: EC50 (µg·mL^−1), R. litoralis growth
[8] = 95% CI in brackets, read-out: EC50 (µM), concentration that inhibited 50% of larval settlement

SMILES: CC(=O)c1ccc(O)cc1O [2,4-dihydroxyacetophenone]
inhibition of spore attachment (Ulva pertusa): significantly inhibit

SMILES: CC(=O)c1ccc(OCc2cn(Cc3ccc(C#N)cc3)nn2)cc1O [Compound 3b, 4-((4-((4-Acetyl-3-hydroxyphenoxy)methyl)-1H-1,2,3-triazol-1-yl)methyl)benzonitrile]
melting point: 153.8 to 155.6 °C | EC50 [1, 6]: 49.8 µM | EC50 [1, 7]: 17.4 µg/mL | R. litoralis biofilm growth inhibition [1]: significantly inhibit

SMILES: CC(=O)c1ccc(OCc2cn(-c3ccc(F)cc3)nn2)cc1O [Compound 4b, 1-(4-((1-(4-Fluorophenyl)-1H-1,2,3-triazol-4-yl)methoxy)-2-hydroxyphenyl)ethan-1-one]
melting point: 145.9 to 148 °C | EC50 [1, 6]: 105 µM | EC50 [1, 7]: 34.4 µg/mL | R. litoralis biofilm growth inhibition [1]: significantly inhibit

SMILES: CC(=O)c1ccc(OCc2cn(-c3ccc(Br)cc3)nn2)cc1O [Compound 5b, 1-(4-((1-(4-Bromophenyl)-1H-1,2,3-triazol-4-yl)methoxy)-2-hydroxyphenyl)ethan-1-one]
melting point: 183.3 to 184.8 °C

SMILES: COc1cc(C(C)=O)cc(OC)c1OCc1cn(-c2ccc(Cl)cc2)nn1 [Compound 6a, 1-(4-((1-(4-Chlorophenyl)-1H-1,2,3-triazol-4-yl)methoxy)-3,5-dimethoxyphenyl)ethan-1-one]
EC50 [2, 8]: 28.9 µM | percentage of settlement [2]: ≤ 40% | LC50 at 15 h [3]: > 200 µM

SMILES: COc1cc(C(C)=O)cc(OC)c1OCc1cn(CCCO)nn1 [Compound 7a, 1-(4-((1-(3-Hydroxypropyl)-1H-1,2,3-triazol-4-yl)methoxy)-3,5-dimethoxyphenyl)ethan-1-one]
mortality rate of Artemia salina nauplii (Artemia salina nauplii [4]): not significantly different from negative control; also recorded: non-toxic | EC50 [2, 8]: 40.1 µM | EC50 ([2]; read-out: EC50 (µg·mL^−1), larval settlement): < 25 µg/mL | percentage of settlement [2]: ≤ 40% | LC50 at 15 h [3]: > 200 µM | Navicula sp. growth inhibition screening (Navicula sp.; 15 µM (Figure 5 legend), 14 days): showed inhibitory activity | EC50 (Navicula sp.; read-out: EC50 (µM), Navicula sp. growth): 26.7 µM | EC50 (Navicula sp.; read-out: EC50 (µg·mL^−1), Navicula sp. growth): 8.96 µg/mL

SMILES: CC(=O)c1ccc(OCc2cn(CCCO)nn2)cc1O [Compound 7b, 1-(2-Hydroxy-4-((1-(3-hydroxypropyl)-1H-1,2,3-triazol-4-yl)methoxy)phenyl)ethan-1-one]
melting point: 69.2 to 70.5 °C | EC50 (µM), R. litoralis growth ([1]; dose-response): not possible to estimate | R. litoralis biofilm growth inhibition [1]: significantly inhibit

SMILES: COc1cc(C(C)=O)cc(OC)c1OCc1cn([C@H]2O[C@@H](CO)[C@H](O)[C@@H](O)[C@@H]2NC(C)=O)nn1 [Compound 9a, N-((2S,3S,4S,5R,6S)-2-(4-((4-Acetyl-2,6-dimethoxyphenoxy)methyl)-1H-1,2,3-triazol-1-yl)-4,5-dihydroxy-6-(hydroxymethyl)tetrahydro-2H-pyran-3-yl)acetamide]
mortality rate of Artemia salina nauplii (Artemia salina nauplii [4]): not significantly different from negative control; also recorded: non-toxic | EC50 [2, 8]: 20.7 µM | percentage of settlement [2]: ≤ 40% | LC50 at 15 h [3]: > 200 µM

SMILES: N#Cc1c(-c2ccc(Cl)cc2)[nH]c(C(F)(F)F)c1Br [ECONEA®]
lethality to Artemia salina (Artemia salina nauplii [5]): 100%

Second part, the compound after the results:

melting point: 149.5 to 149.8 °C
SMILES: COc1cc(C(C)=O)cc(OC)c1OCc1cn(Cc2ccc(C#N)cc2)nn1 [Compound 3a, 4-((4-((4-Acetyl-2,6-dimethoxyphenoxy)methyl)-1H-1,2,3-triazol-1-yl)methyl)benzonitrile]

melting point: 160 to 160.5 °C
SMILES: COc1cc(C(C)=O)cc(OC)c1OCc1cn(-c2ccc(F)cc2)nn1 [Compound 4a, 1-(4-((1-(4-Fluorophenyl)-1H-1,2,3-triazol-4-yl)methoxy)-3,5-dimethoxyphenyl)ethan-1-one]

melting point: 159.1 to 160.4 °C
SMILES: COc1cc(C(C)=O)cc(OC)c1OCc1cn(-c2ccc(Br)cc2)nn1 [Compound 5a, 1-(4-((1-(4-Bromophenyl)-1H-1,2,3-triazol-4-yl)methoxy)-3,5-dimethoxyphenyl)ethan-1-one]

melting point: 157 to 159.1 °C
SMILES: CC(=O)c1ccc(OCc2cn(-c3ccc(Cl)cc3)nn2)cc1O [Compound 6b, 1-(4-((1-(4-Chlorophenyl)-1H-1,2,3-triazol-4-yl)methoxy)-2-hydroxyphenyl)ethan-1-one]

melting point: 99.5 to 102.3 °C
SMILES: COc1ccc(-n2cc(COc3c(OC)cc(C(C)=O)cc3OC)nn2)cc1 [Compound 8a, 1-(3,5-Dimethoxy-4-((1-(4-methoxyphenyl)-1H-1,2,3-triazol-4-yl)methoxy)phenyl)ethan-1-one]

melting point: 115.1 to 117.5 °C
SMILES: COc1ccc(-n2cc(COc3ccc(C(C)=O)c(O)c3)nn2)cc1 [Compound 8b, 1-(2-Hydroxy-4-((1-(4-methoxyphenyl)-1H-1,2,3-triazol-4-yl)methoxy)phenyl)ethan-1-one]
